According to PubChem BioAssay (NCI):
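Assay format: 96-well plates, 48-hour exposure. GI50 marks 50% less growth. TGI is the concentration that stops growth completely.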

How the values were obtained:
Assay in all cases: growth of human tumour cells (NCI), 48 h
HOP-62 NSCLC = system: HOP-62 NSCLC
HT29 colon = system: HT29 colon
IGROV1 ovarian = system: IGROV1 ovarian
NCI-H23 lung = system: NCI-H23 lung
NCI-H522 lung = system: NCI-H522 lung
RPMI-8226 leukemia = system: RPMI-8226 leukemia
SK-MEL-2 melanoma = system: SK-MEL-2 melanoma
SK-MEL-5 melanoma = system: SK-MEL-5 melanoma
HS 578T breast = system: HS 578T breast
MDA-MB-435 = system: MDA-MB-435

| Compound | GI50 (HOP-62 NSCLC) | TGI (HOP-62 NSCLC) | GI50 (HT29 colon) | TGI (HT29 colon) | GI50 (IGROV1 ovarian) | TGI (IGROV1 ovarian) | GI50 (NCI-H23 lung) | TGI (NCI-H23 lung) | GI50 (NCI-H522 lung) | TGI (NCI-H522 lung) | GI50 (RPMI-8226 leukemia) | TGI (RPMI-8226 leukemia) | GI50 (SK-MEL-2 melanoma) | TGI (SK-MEL-2 melanoma) | GI50 (SK-MEL-5 melanoma) | TGI (SK-MEL-5 melanoma) | GI50 (HS 578T breast) | TGI (HS 578T breast) | GI50 (MDA-MB-435) | TGI (MDA-MB-435) |
| --- | --- | --- | --- | --- | --- | --- | --- | --- | --- | --- | --- | --- | --- | --- | --- | --- | --- | --- | --- | --- |
| CC(=O)[CH-]C(=O)c1ccccc1.CC(=O)[CH-]C(=O)c1ccccc1.O=C([O-])c1ccc([O-])cc1.O=C([O-])c1ccc([O-])cc1.[Ti+4] | 35.1 µM | > 100 µM | 51.2 µM | > 100 µM | 84.3 µM | > 100 µM | 66.2 µM | > 100 µM | 22.8 µM | 70.9 µM | 20.7 µM | 62.8 µM | 36.9 µM | > 100 µM | 43.9 µM | > 100 µM |  |  |  |  |
| Cc1ccc(/C(=C/C=C(C#N)C#N)Sc2ccc(Cl)cc2)cc1 | 6.4 µM | 15.6 µM |  |  |  |  | 9.54 µM | 23.4 µM |  |  | 2.34 µM | 7.96 µM |  |  | 12 µM | 25.9 µM | 14.3 µM | 58.4 µM | 3.02 µM | 10.7 µM |
| CCC[CH2][Sn]1([CH2]CCC)[O]C(=O)C(C(C)C)N=Cc2ccccc2[O]1 (centres undefined) | 3.79 µM | > 100 µM | 0.907 µM | 2.21 µM | 2.21 µM | > 100 µM | 0.158 µM | 0.534 µM | 0.0442 µM | 0.168 µM |  |  | 0.195 µM | 0.521 µM | 1.07 µM | > 100 µM |  |  |  |  |
| COc1c2c(cc3nc4ccccc4nc13)CCC(C(C)(C)O)C2 (centres undefined) |  | > 100 µM |  | > 100 µM |  | > 100 µM |  | > 100 µM |  | > 100 µM |  |  |  | > 100 µM |  | > 100 µM |  |  |  |  |
| Cc1cccc(NC(=O)C(=O)Cc2nc3ccccc3[nH]c2=O)c1C |  | > 100 µM |  | > 100 µM |  | > 100 µM |  | > 100 µM |  | > 100 µM |  |  |  |  |  | > 100 µM |  |  |  |  |
| CCOC(=O)Sc1ncnc2nc[nH]c12 | 0.808 µM | > 100 µM | 3.07 µM | > 100 µM | 6.69 µM | > 100 µM | 3.93 µM | > 100 µM | 3.33 µM | > 100 µM |  |  | 6.15 µM | > 100 µM | 5.96 µM | > 100 µM | 13.8 µM | > 100 µM | 1.47 µM | > 100 µM |
| CC(=O)OC1CC(O)C23COC(O)C1(C)C2CC(O)C1(C)C3C(=O)C(O)C2(C)C(c3ccoc3)CC3OC321 (centres undefined) | 0.685 µM | > 100 µM | < 0.01 µM | > 33.3 µM | 0.377 µM | > 100 µM |  | > 100 µM | 0.401 µM | > 100 µM | < 0.01 µM | 0.0237 µM |  | > 100 µM | < 0.01 µM |  |  |  | < 0.0152 µM | > 100 µM |
| COC(=O)c1cccc2cccc(C(=O)Nc3ccc(C)cc3C)c12 |  | > 100 µM |  | > 100 µM |  | > 100 µM |  | > 100 µM |  | > 100 µM |  | > 100 µM |  | > 100 µM |  | > 100 µM |  |  |  |  |
| CCOC(=O)CN=c1nc(SC)sc2c(C(=O)OCC)nc(Sc3ccccc3)n12 |  | > 100 µM |  | > 100 µM |  | > 100 µM |  |  |  | 74.3 µM |  | > 100 µM |  | > 100 µM |  | > 100 µM |  |  |  |  |
| CCOC(=O)c1cc(/C(=N\O)c2cc(OC)c(OC)c(OC)c2)n2cc(C)cc(C)c12 | 1.73 µM | 5.45 µM | 3.08 µM | > 100 µM | 3.21 µM | > 100 µM | 2.81 µM | > 100 µM |  |  | 2.46 µM | 5.79 µM |  |  | 2.19 µM | 5.79 µM | 2.7 µM | > 100 µM | 0.565 µM | 4.16 µM |
| C=CCCCCCCCCC(=O)NS(=O)(=O)c1ccccc1 |  | > 100 µM |  | > 100 µM |  | > 100 µM |  | > 100 µM |  | > 100 µM |  | > 100 µM |  | > 100 µM |  |  |  |  |  |  |
| CN(C)c1ccc(N)cc1 |  |  | 3.04 µM | 10.8 µM | 4.04 µM | 23.8 µM | 3.14 µM | 14.1 µM | 1.94 µM | 7.84 µM | 2.71 µM | 9.1 µM | 2.55 µM | 7.84 µM | 3.91 µM | 13.7 µM |  |  | 3.4 µM | 15.2 µM |
| O=C(O)CP(=S)(S)c1ccccc1 (centres undefined) |  | > 100 µM |  | > 100 µM |  |  |  | > 100 µM |  | > 100 µM |  |  |  | > 100 µM |  | > 100 µM |  |  |  |  |
| Cc1noc(C)c1CCCOC1COc2ccccc2OCCOCCOc2ccccc2OC1 |  | > 100 µM |  | > 100 µM |  | > 100 µM |  | > 100 µM |  | > 100 µM |  |  |  | > 100 µM |  | > 100 µM |  |  |  |  |
| CC12CCCC(O)C1CCC1=CC3(CCC12)SCCS3 (centres undefined) |  | > 10 µM |  | > 10 µM |  | > 10 µM |  | > 10 µM |  | > 10 µM |  | > 10 µM |  |  |  | > 10 µM |  |  |  | > 10 µM |
| CC[O-].CC[O-].O=C1c2ccccc2C(=O)c2c(O)ccc([O-])c21.O=C1c2ccccc2C(=O)c2c(O)ccc([O-])c21.[Ti+4] |  | > 100 µM |  | > 100 µM |  | > 100 µM |  | > 100 µM |  | > 100 µM |  | > 100 µM |  | > 100 µM |  | > 100 µM |  |  |  |  |
| COc1ccc(C(C)c2cc3c(cc2OC)OCO3)cc1 (centres undefined) |  | > 46.2 µM |  | 0.43 µM |  | 7.47 µM |  | > 21.5 µM |  | 0.438 µM |  | > 48.6 µM |  | 2.49 µM |  | 2.31 µM |  |  |  | 0.214 µM |
| O=c1cccccc1NCCCNc1cccccc1=O |  | > 100 µM |  | > 100 µM |  | > 100 µM |  | > 100 µM |  | > 100 µM |  | > 100 µM |  | > 100 µM |  |  |  |  |  |  |
| NC1=NN(c2ccccc2)C(=O)C1C(=O)CCC(=O)Nc1cccc(C(F)(F)F)c1 (centres undefined) |  | > 100 µM |  | > 100 µM |  | > 100 µM |  | > 100 µM |  |  |  |  |  | > 100 µM |  | > 100 µM |  |  |  |  |
| COC(=O)c1cc(Br)c(Br)n1C |  | > 100 µM |  | > 100 µM |  | > 100 µM |  | > 100 µM |  | > 100 µM |  |  |  |  |  | > 100 µM |  |  |  |  |
